Assay results published in ChEMBL document CHEMBL1201862, “PubChem BioAssay data set” (2004).
Calls of active or inactive are those of the source.

Columns and labels:
[1] = ARNT/TACC3 interaction disruptors, potency, confirmation, biochemical, AlphaScreen, cherry-picked samples (AID 651703); assay type: functional, Homo sapiens;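 also: His-tagged ARNT PAS-B domain paired with GST-TACC3 E629A dimer coactivator fragment; potency of inhibitors that break up the complex and lower AlphaScreen signal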
[2] = biological target: T1, Carboxy-terminal domain RNA polymerase II polypeptide A small phosphatase 1 (Homo sapiens, UniProt Q9GZU7); assay: inhibitors of CTDSP1, concentration-response testing, biochemical assay, absorbance-based, actives from ultra-high-throughput screening (AID 540297); assay type: functional
T1 sequence (Q9GZU7 whole entry): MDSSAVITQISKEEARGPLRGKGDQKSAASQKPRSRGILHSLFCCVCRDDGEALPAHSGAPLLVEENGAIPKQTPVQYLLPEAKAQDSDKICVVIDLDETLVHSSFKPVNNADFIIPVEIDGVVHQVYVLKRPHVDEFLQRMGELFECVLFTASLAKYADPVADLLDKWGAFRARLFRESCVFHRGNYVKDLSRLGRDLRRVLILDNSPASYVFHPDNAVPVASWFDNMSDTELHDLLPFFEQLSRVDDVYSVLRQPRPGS

[3] = biological target: T2, Low molecular weight phosphotyrosine protein phosphatase (Homo sapiens, UniProt P24666); assay type: functional; conditions: read-out: IC50_Mean
T2 sequence (P24666 whole entry): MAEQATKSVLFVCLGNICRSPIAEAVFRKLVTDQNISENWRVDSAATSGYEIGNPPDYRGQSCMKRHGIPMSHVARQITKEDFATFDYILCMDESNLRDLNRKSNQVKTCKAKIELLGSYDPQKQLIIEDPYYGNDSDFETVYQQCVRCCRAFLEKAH

[4] = biological target: T2, Low molecular weight phosphotyrosine protein phosphatase; assay type: functional; conditions: read-out: IC50_Mean; remark: listed apart in the source
[5] = biological target: T3, Apoptotic protease-activating factor 1 (Homo sapiens, UniProt O14727); assay: SAR analysis of small molecule Activators of Apaf-1 in a Fluorescent assay.; assay type: functional; conditions: read-out: EC50_Mean
T3 sequence (O14727 whole entry): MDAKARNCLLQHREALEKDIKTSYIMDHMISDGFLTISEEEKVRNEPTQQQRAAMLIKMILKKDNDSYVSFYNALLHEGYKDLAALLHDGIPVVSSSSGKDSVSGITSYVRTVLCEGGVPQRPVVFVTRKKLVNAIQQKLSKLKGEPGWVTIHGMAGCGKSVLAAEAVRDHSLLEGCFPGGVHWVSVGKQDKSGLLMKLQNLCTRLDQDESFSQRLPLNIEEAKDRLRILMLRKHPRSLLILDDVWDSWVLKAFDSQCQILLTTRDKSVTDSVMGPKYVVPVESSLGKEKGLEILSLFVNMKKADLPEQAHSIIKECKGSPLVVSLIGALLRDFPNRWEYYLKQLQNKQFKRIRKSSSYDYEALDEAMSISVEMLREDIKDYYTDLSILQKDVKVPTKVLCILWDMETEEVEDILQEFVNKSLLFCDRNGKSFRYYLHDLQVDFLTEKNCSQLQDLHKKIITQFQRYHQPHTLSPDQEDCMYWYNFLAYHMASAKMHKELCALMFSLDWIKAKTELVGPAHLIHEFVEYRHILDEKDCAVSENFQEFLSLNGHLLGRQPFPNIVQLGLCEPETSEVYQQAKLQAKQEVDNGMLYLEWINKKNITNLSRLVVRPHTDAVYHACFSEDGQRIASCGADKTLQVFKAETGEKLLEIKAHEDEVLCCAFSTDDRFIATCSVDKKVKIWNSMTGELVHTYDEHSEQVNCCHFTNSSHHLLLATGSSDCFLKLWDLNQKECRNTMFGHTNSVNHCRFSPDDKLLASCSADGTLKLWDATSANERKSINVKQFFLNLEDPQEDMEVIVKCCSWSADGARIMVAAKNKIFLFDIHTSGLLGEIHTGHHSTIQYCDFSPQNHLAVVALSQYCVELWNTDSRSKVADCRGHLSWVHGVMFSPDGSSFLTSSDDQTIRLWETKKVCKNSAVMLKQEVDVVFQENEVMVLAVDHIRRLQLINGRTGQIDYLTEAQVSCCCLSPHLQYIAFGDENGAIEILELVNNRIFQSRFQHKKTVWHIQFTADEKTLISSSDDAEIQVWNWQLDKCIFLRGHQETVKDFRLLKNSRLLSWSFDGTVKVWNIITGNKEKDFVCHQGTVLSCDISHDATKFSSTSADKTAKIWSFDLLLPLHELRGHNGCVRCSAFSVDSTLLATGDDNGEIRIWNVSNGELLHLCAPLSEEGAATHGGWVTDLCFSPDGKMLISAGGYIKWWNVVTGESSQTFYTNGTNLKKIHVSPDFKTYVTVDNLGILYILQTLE

[6] = biological target: T4, Small ubiquitin-related modifier 1 (Homo sapiens, UniProt P63165); assay: inhibitors of SUMO1 peptide binding, dose response, biochemical, fluorescence polarization, uHTS hits (AID 624382); assay type: functional; conditions: read-out: IC50_Mean
T4 sequence (P63165 whole entry): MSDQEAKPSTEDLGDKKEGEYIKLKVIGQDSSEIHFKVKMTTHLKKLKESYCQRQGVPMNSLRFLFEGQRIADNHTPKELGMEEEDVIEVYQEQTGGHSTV

[7] = biological target: T4, Small ubiquitin-related modifier 1; assay: inhibitors of SUMO1 partner interactions, dose response, biochemical, FRET (AID 624383); assay type: functional; conditions: read-out: IC50_Mean
[8] = Luminescence Cell-Based Dose Retest to Confirm Inhibitors of Cancer Stem Cells. [Related pubchem assays (depositor defined):AID2717, AID2721]; assay type: functional; conditions: Homo sapiens
Bcl-2-related protein A1 = biological target: T5, Bcl-2-related protein A1 (Mus musculus, UniProt Q07440); assay type: functional;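 also: confirmatory dose–response counterscreen on Bfl-1, used to check hits from a UBC13 polyubiquitin inhibitor campaign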
T5 sequence (Q07440 whole entry): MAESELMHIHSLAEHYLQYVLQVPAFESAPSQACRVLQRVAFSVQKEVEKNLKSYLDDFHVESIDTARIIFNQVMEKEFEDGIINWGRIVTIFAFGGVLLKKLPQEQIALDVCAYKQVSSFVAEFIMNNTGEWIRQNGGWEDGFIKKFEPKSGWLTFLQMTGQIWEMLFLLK

[9] = biological target: T6, Ubiquitin-conjugating enzyme E2 N (Homo sapiens, UniProt P61088); assay type: functional
T6 sequence (P61088 whole entry): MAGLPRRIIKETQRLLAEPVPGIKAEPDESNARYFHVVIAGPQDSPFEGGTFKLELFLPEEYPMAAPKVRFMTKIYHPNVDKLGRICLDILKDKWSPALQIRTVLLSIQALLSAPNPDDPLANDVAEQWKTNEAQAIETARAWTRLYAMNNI

[10] = biological target: T6, Ubiquitin-conjugating enzyme E2 N; assay type: functional; remark: listed apart in the source
[11] = biological target: T3, Apoptotic protease-activating factor 1; assay type: functional
INS1 = assay: beta cell apoptosis inhibitors, cytokine rescue, dose response, luminescence, retest (AID 449756); assay type: functional, cell-based; conditions: Rattus norvegicus;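 also: cell death triggered by IL-1 beta plus TNF-alpha plus IFN-gamma mixture; protective hits raise ATP signal compared with cytokine alone wells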
[12] = Shn3 3'UTR reporter inhibitors, dose response, cell-based, Clone20 osteoblasts, firefly luciferase, cherry-picked (AID 624132); assay type: functional;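 also: firefly luciferase luminescence from reporter carrying the Shn3 3'UTR in osteoblasts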
[13] = HepG2 cell cytotoxicity, dose response, cytotoxicity control for Shn3 inhibitor project, CellTiter-Glo, cherry-picked (AID 624134); assay type: functional, cell-based
[14] = control 3'UTR Renilla luciferase suppression, dose response, counter-screen for Shn3 inhibitor project, cell-based, Clone20-Shn3RL, cherry-picked (AID 624133); assay type: functional
[15] = biological target: Hepatocyte nuclear factor 4-alpha (Homo sapiens, UniProt P41235); assay type: functional, cell-based;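 also: biochemical luminescence-based dose-response counterscreen measuring inhibition of HNF4 dimerization, run alongside a screen for blockers of ABHD5–perilipin-5 interaction; split luciferase complementation of HNF4 fusion proteins in cell lysate measuring dimerization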
Sequence of Hepatocyte nuclear factor 4-alpha (P41235 whole entry, the tested form may be a part): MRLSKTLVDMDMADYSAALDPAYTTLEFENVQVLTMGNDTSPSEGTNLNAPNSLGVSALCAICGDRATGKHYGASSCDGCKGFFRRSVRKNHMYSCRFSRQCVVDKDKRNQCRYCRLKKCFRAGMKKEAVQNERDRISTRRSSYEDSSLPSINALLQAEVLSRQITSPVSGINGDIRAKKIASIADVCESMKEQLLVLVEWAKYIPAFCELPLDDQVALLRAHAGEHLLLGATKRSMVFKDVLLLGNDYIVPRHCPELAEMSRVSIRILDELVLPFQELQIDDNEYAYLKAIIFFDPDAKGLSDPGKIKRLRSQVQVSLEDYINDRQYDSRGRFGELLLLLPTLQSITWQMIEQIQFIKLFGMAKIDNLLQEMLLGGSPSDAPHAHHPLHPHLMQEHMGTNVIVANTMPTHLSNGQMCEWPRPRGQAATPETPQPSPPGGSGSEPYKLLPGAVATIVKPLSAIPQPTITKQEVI

[16] = biological target: Ras and Rab interactor 1/Tyrosine-protein kinase ABL1 (Homo sapiens, UniProt P00519+Q13671); assay type: functional;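 also: biochemical TR-FRET dose-response test measuring inhibition of binding between Rin1 and Abl proteins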
Sequence of Ras and Rab interactor 1/Tyrosine-protein kinase ABL1 (P00519 whole entry): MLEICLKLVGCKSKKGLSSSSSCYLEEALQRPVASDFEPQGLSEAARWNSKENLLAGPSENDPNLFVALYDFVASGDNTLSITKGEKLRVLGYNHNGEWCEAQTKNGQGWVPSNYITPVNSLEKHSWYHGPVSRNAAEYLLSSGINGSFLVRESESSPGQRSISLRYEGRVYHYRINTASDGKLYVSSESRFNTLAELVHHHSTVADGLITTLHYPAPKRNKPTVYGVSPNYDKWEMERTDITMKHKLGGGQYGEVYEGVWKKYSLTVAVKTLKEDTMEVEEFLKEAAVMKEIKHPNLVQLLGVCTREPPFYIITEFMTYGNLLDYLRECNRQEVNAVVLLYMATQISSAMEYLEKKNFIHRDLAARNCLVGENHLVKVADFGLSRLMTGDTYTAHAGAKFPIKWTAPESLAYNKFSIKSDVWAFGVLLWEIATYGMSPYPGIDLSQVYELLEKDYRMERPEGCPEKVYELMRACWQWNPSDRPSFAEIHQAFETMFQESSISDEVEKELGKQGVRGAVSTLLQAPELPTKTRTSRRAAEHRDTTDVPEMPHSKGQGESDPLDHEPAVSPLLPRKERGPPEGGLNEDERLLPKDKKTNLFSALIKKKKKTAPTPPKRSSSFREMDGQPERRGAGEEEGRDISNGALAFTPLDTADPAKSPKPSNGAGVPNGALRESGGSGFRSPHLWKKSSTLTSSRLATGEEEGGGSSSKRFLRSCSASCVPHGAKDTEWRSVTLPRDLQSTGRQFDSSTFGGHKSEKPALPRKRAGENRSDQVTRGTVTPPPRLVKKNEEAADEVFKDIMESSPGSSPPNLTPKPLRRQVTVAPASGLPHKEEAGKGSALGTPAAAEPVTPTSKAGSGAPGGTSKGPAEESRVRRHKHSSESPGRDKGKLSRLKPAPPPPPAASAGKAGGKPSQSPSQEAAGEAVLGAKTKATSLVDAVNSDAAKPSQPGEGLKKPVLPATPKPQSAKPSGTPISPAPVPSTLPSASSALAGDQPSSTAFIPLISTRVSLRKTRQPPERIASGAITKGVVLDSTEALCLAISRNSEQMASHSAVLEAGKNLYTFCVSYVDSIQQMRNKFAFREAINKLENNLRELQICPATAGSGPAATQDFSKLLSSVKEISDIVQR
Sequence of Ras and Rab interactor 1/Tyrosine-protein kinase ABL1 (Q13671 whole entry): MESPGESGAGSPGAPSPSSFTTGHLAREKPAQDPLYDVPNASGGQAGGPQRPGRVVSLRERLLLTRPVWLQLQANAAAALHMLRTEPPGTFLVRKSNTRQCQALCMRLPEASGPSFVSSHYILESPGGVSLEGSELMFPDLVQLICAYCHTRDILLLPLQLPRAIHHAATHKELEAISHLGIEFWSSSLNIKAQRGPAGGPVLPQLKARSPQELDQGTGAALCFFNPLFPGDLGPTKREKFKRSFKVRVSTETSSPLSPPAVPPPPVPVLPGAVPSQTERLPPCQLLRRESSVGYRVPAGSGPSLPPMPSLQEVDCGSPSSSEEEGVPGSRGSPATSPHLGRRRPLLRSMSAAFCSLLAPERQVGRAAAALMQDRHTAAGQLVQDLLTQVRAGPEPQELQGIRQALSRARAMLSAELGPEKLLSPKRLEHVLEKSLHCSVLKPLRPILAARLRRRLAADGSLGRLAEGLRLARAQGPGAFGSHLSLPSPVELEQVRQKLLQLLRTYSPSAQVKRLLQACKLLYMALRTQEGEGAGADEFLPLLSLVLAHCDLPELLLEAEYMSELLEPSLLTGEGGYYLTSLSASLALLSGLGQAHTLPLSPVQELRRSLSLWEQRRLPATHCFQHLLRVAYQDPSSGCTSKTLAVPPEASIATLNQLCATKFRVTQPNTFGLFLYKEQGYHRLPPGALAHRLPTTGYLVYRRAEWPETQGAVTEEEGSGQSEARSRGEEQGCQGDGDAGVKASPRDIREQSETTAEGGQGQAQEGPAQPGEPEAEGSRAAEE

HEK293 [17] = assay: NOD1 signaling inhibitors, primary screen, cell-based, luminescence, uHTS (AID 1578); assay type: functional; conditions: Homo sapiens
HEK293 [18] = assay: cells; assay type: functional, cell-based; conditions: Homo sapiens
HEK293 [19] = assay: cells; assay type: functional, cell-based; conditions: Homo sapiens; remark: listed apart in the source
[20] = biological target: Nucleotide-binding oligomerization domain-containing protein 2 (Homo sapiens, UniProt Q9HC29); assay: NOD2 signaling inhibitors, cell-based, luminescence, uHTS, HEK293 (AID 1566); assay type: functional
Sequence of Nucleotide-binding oligomerization domain-containing protein 2 (Q9HC29 whole entry, the tested form may be a part): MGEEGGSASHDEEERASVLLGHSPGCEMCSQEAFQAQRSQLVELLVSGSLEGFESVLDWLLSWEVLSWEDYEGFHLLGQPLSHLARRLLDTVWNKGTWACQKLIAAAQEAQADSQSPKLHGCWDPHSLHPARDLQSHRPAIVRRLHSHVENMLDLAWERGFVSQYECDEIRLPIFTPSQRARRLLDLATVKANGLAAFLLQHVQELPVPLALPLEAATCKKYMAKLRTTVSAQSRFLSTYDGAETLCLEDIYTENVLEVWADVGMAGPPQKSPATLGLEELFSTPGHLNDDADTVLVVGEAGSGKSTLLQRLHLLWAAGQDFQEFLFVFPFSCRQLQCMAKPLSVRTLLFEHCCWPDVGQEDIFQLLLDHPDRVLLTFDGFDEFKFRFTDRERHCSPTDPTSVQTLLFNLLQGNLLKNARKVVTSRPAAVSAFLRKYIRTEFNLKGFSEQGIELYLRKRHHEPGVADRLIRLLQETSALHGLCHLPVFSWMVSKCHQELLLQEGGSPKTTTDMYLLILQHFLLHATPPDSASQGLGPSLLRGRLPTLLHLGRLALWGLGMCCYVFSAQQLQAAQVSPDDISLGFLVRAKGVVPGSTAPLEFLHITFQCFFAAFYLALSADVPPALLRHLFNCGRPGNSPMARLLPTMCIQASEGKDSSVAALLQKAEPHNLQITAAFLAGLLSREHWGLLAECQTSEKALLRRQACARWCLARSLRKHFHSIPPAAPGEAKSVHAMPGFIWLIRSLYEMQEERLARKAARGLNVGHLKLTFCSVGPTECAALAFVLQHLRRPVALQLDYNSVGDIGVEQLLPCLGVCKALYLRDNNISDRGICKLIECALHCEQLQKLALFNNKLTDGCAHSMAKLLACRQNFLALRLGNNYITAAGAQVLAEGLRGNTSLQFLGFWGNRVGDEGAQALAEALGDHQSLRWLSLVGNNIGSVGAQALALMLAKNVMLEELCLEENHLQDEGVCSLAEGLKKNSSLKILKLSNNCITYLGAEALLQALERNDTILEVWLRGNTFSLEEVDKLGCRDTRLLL

HEK293 [21] = assay: NOD2 signaling inhibitors in MDP-stimulated cells, cell-based, uHTS, luminescence (AID 2001); assay type: functional; conditions: Homo sapiens
HEK293 [22] = assay: cells; assay type: functional, cell-based; conditions: Homo sapiens; remark: listed apart in the source
H9c2 = assay: cells; assay type: functional, cell-based; conditions: Rattus norvegicus, H9c2, Myocardium
Interleukin-8 = biological target: T7, Interleukin-8 (Homo sapiens, UniProt P10145); assay: Dose Response confirmation of uHTS small molecule hits for cystic fibrosis induced NFkb Inhibitors in a PAF-induced IL8 counterscreen.; assay type: functional; conditions: read-out: IC50_Mean
T7 sequence (P10145 whole entry): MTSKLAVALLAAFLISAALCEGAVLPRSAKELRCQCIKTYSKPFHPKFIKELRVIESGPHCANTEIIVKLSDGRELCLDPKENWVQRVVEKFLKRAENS

[23] = growth suppression of PTEN-null colon cells, dose response, cell-based, HCT116 PTEN knockout (AID 1047); assay type: functional;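 also: HCT116 colon tumor cells with PTEN knocked out; cells exposed to compound for 60 hours before readout; potency for loss of cell viability measured by luminescence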
[24] = growth suppression of beta-catenin-knockout colon cells, dose response, cell-based, HCT116, human colon tumor (AID 1045); assay type: functional;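 also: HCT116 colon tumor cells with beta catenin knocked out; cells exposed to compound for 60 hours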
HEK293 [25] = assay: inhibitors of LMP1-driven NF-kB reporter, dose response, cell-based, HEK293, luciferase, cherry-pick (AID 588343); assay type: functional; conditions: Homo sapiens
[26] = biological target: T8, DNA repair and recombination protein RAD54-like (Homo sapiens, UniProt Q92698); assay: inhibitors of human RAD54 branch migration, confirmation, biochemical, fluorescence, cherry-picked samples, dose series (AID 651657); assay type: functional
T8 sequence (Q92698 whole entry): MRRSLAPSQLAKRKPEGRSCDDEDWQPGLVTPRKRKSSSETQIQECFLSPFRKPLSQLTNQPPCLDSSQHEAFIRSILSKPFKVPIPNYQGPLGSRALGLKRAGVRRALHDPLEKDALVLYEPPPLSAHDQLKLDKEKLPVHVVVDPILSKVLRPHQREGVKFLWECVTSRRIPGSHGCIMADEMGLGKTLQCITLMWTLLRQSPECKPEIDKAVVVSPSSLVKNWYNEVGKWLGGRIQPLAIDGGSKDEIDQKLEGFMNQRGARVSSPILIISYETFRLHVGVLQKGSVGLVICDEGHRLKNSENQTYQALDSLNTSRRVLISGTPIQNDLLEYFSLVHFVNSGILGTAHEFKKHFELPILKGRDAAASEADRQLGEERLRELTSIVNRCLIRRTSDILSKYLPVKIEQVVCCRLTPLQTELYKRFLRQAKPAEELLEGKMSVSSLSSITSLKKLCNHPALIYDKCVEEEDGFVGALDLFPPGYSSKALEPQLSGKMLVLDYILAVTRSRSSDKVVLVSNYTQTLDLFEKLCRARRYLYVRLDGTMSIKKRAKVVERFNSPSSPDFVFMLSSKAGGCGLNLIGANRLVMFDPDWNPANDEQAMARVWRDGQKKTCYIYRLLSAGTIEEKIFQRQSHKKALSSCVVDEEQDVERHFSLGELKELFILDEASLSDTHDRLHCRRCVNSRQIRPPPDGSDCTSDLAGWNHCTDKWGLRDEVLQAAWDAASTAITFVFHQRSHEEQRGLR
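For EC50 Mean in this document: caspase-3 cleavage of fluorogenic Rh110 DEVD substrate downstream of apoptosome activation.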

## O=C(NCCCn1ccnc1)c1cc2cc([N+](=O)[O-])ccc2oc1=O
[1]
  AC50: 131 µM (active)

## COc1ccc(NC(=O)/C(C#N)=C\c2ccc(OCc3ccc(C(=O)O)cc3)c(OC)c2)cc1
[2]
  IC50: 1.57 µM (active)
[3]
  IC50: 35 µM (inactive)
[4]
  IC50: 31.5 µM (inactive)

## COc1ccc(C2=NOC3(CC(=O)N(c4ccc(C)cc4)C3=O)C2)cc1 (configuration not stated)
[5]
  EC50: > 100 µM (inactive)

## CC(=O)Nc1ccc(NC(=O)c2cc(-c3ccc(C)cc3O)n[nH]2)cc1
[6]
  IC50: > 66.6 µM (inactive)
[7]
  IC50: 13.3 µM (active)

## NC1=NC[C@@H](CC2CCCCC2)N1CCc1cc(C(F)(F)F)cc(C(F)(F)F)c1
[8]
  AC50: 3.19 µM (active)
Bcl-2-related protein A1
  IC50: > 20 µM (inactive)
[9]
  IC50: 19.6 µM (active)
[10]
  IC50: 11.5 µM (active)
[11]
  IC50: 60.4 µM (active)
INS1
  AC50: 7.06 µM (active)
[12]
  AC50: 9.92 µM (active)
[13]
  AC50: 14.7 µM (active)
[14]
  AC50: 24.8 µM (active)

## CC(CNc1ccc(Oc2ccccc2)cc1)C(=O)O (configuration not stated)
[5]
  EC50: > 100 µM (inactive)

## CCCCn1c(SCC(=O)NCc2ccco2)nnc1-c1ccoc1C
[2]
  IC50: 6.25 µM (active)
[15]
  IC50: 12.9 µM (inactive)

## CCOC(=O)N1CCN(C(=O)Nc2ccc(NC(=O)N3CCN(C(=O)OCC)CC3)cc2)CC1
[16]
  IC50: 7.81 µM (active)

## CCCCc1c(C)c(C#N)c2nc3ccccc3n2c1O
HEK293 [17]
  EC50: 4.1 µM (active)
HEK293 [18]
  IC50: 13.1 µM (active)
HEK293 [19]
  IC50: > 20 µM (inactive)
[20]
  EC50: 8.9 µM (active)
HEK293 [21]
  IC50: 10.8 µM (inactive)
HEK293 [22]
  IC50: > 20 µM (inactive)
[11]
  IC50: 7.79 µM (active)

## COc1ccc(CNc2nn3c(-c4cccc(C(=O)N(C)C)c4)cnc3s2)cc1
H9c2
  IC50: 42.1 µM (inactive)
Interleukin-8
  IC50: 18 µM (inactive)

## CCOC(=O)CCCCCC(=O)Nc1ccc2c(c1)C(=O)N([C@H](C)CO)C[C@@H](C)[C@@H](CN(C)C(=O)CCC(F)(F)F)OCCCC[C@H](C)O2
[16]
  IC50: 3.59 µM (active)

## CC1=CC(C)(C)Nc2ccc(OC(=O)CN3C(=O)C4CCCCC4C3=O)cc21 (configuration not stated)
[23]
  EC50: 7.23 µM (active)
[24]
  EC50: 4.74 µM (active)
[15]
  IC50: 4.53 µM (active)

## COc1ccc(C(=O)Nc2cc(C)c(NC(=O)c3ccccc3OC)cn2)cc1
HEK293 [25]
  AC50: 169 µM (active)
[6]
  IC50: > 66.6 µM (inactive)
[7]
  IC50: 1.48 µM (active)
[26]
  AC50: 100 µM (inactive)
